Laboratory results reported in ChEMBL document CHEMBL6177952, “Exploring chloro-isoxazole compounds inspired on tetrahydrofuran neolignans as promising antileishmanial agents” (Eur J Med Chem, 2025).

Tests used:
[1] = Cytotoxicity against BALB/c mouse Peritoneal macrophage assessed as inhibition of cell growth incubated for 48 hrs by MTT assay; format: toxicity, cell-based; settings: peritoneal macrophages
Leishmania amazonensis [2] = test: Antileishmanial activity against leishmania amazonensis IFLA/BR/1967/PH8 promastigotes infected in mouse Peritoneal macrophage incubated for 24 hrs; format: functional, organism-based; settings: IFLA/BR/1967/PH8, Peritoneal macrophage
Leishmania amazonensis [3] = test: Antileishmanial activity against leishmania amazonensis IFLA/BR/1967/PH8 intracellular amastigote infected in mouse Peritoneal macrophage incubated for 24 hrs; format: functional, organism-based; settings: IFLA/BR/1967/PH8, Peritoneal macrophage
Leishmania amazonensis [4] = test: Antileishmanial activity against Leishmania amazonensis promastigotes assessed as early apoptotic parasites at 10.4 uM incubated for 24 hrs by Annexin V/7-AAD staining based flow cytometry analysis relative to control; format: functional
Leishmania amazonensis [5] = test: Antileishmanial activity against Leishmania amazonensis promastigotes assessed as late apoptotic parasites at 10.4 uM incubated for 24 hrs by Annexin V/7-AAD staining based flow cytometry analysis relative to control; format: functional
Leishmania amazonensis [6] = test: Antileishmanial activity against Leishmania amazonensis promastigotes assessed as viable apoptotic parasites at 10.4 uM incubated for 24 hrs by Annexin V/7-AAD staining based flow cytometry analysis relative to control; format: functional
Leishmania amazonensis [7] = test: Antileishmanial activity against Leishmania amazonensis promastigotes assessed as necrotic parasites at 10.4 uM incubated for 24 hrs by Annexin V/7-AAD staining based flow cytometry analysis relative to control; format: functional
Leishmania amazonensis [8] = test: Antileishmanial activity against Leishmania amazonensis promastigotes assessed as early apoptotic parasites at 10.4 uM incubated for 48 hrs by Annexin V/7-AAD staining based flow cytometry analysis relative to control; format: functional
Leishmania amazonensis [9] = test: Antileishmanial activity against Leishmania amazonensis promastigotes assessed as late apoptotic parasites at 10.4 uM incubated for 48 hrs by Annexin V/7-AAD staining based flow cytometry analysis relative to control; format: functional
Leishmania amazonensis [10] = test: Antileishmanial activity against Leishmania amazonensis promastigotes assessed as viable apoptotic parasites at 10.4 uM incubated for 48 hrs by Annexin V/7-AAD staining based flow cytometry analysis relative to control; format: functional
Leishmania amazonensis [11] = test: Antileishmanial activity against Leishmania amazonensis promastigotes assessed as necrotic parasites at 10.4 uM incubated for 48 hrs by Annexin V/7-AAD staining based flow cytometry analysis relative to control; format: functional
Leishmania amazonensis [12] = test: Antileishmanial activity against Leishmania amazonensis promastigotes assessed as early apoptotic parasites at 10.4 uM incubated for 72 hrs by Annexin V/7-AAD staining based flow cytometry analysis relative to control; format: functional
Leishmania amazonensis [13] = test: Antileishmanial activity against Leishmania amazonensis promastigotes assessed as late apoptotic parasites at 10.4 uM incubated for 72 hrs by Annexin V/7-AAD staining based flow cytometry analysis relative to control; format: functional
Leishmania amazonensis [14] = test: Antileishmanial activity against Leishmania amazonensis promastigotes assessed as viable apoptotic parasites at 10.4 uM incubated for 72 hrs by Annexin V/7-AAD staining based flow cytometry analysis relative to control; format: functional
Leishmania amazonensis [15] = test: Antileishmanial activity against Leishmania amazonensis promastigotes assessed as necrotic parasites at 10.4 uM incubated for 72 hrs by Annexin V/7-AAD staining based flow cytometry analysis relative to control; format: functional
[16] = Mutagenicity in Salmonella typhimurium TA98 assessed as number of revertant colonies per plate at 2.5 microg/ml in presence of S9 fraction by Ames test; format: toxicity, subcellular; settings: salmonella enterica subsp. enterica serovar typhimurium, dose 2.5 µg/ml
[17] = Mutagenicity in Salmonella typhimurium TA100 assessed as number of revertant colonies per plate at 2.5 microg/ml in presence of S9 fraction by Ames test; format: toxicity, subcellular; settings: salmonella enterica subsp. enterica serovar typhimurium, dose 2.5 µg/ml
[18] = Selectivity ratio of CC50 for cytotoxicity against BALB/c mouse Peritoneal macrophage assessed as inhibition of cell growth to IC50 for antileishmanial activity against leishmania amazonensis IFLA/BR/1967/PH8 promastigotes infected in mouse Peritoneal macrophage; format: toxicity, cell-based; settings: peritoneal macrophages, read-out: Ratio CC50/IC50
[19] = Selectivity ratio of CC50 for cytotoxicity against BALB/c mouse Peritoneal macrophage assessed as inhibition of cell growth to IC50 for antileishmanial activity against leishmania amazonensis IFLA/BR/1967/PH8 intracellular amastigote infected in mouse Peritoneal macrophage; format: toxicity, cell-based; settings: peritoneal macrophages, read-out: Ratio CC50/IC50
Leishmania amazonensis [20] = test: Antileishmanial activity against leishmania amazonensis assessed as reduction in parasite growth; format: functional, organism-based
Leishmania amazonensis [21] = test: Antileishmanial activity against leishmania amazonensis infected in BALB/c mouse assessed as reduction parasite load in footpad; format: functional; design: scale not given: the % may be the effect or the level left
Leishmania amazonensis [22] = test: Antileishmanial activity against Leishmania amazonensis promastigotes; format: functional, organism-based
Leishmania amazonensis [23] = test: Antiparasitic activity against Leishmania amazonensis promastigotes incubated for 24 hrs; format: functional, organism-based
Leishmania amazonensis [24] = test: Potency index, ratio of pentamidine IC50 to test compound IC50 for antileishmanial activity against leishmania amazonensis IFLA/BR/1967/PH8 intracellular amastigote infected in mouse Peritoneal macrophage incubated for 24 hrs; format: functional
Leishmania amazonensis [25] = test: Antileishmanial activity against leishmania amazonensis IFLA/BR/1967/PH8 intracellular amastigotes infected in mouse Peritoneal macrophage assessed as reduction in parasite growth measured for 24 hrs; format: functional, organism-based; settings: IFLA/BR/1967/PH8, Peritoneal macrophage
Leishmania amazonensis [26] = test: Antileishmanial activity against leishmania amazonensis IFLA/BR/1967/PH8 promastigotes assessed as reduction in parasite growth measured for 72 hrs; format: functional, organism-based; settings: IFLA/BR/1967/PH8, 72 h
Leishmania amazonensis [27] = test: Antileishmanial activity against leishmania amazonensis IFLA/BR/1967/PH8 amastigote measured for 72 hrs; format: functional, organism-based; settings: IFLA/BR/1967/PH8, 72 h
[28] = Mutagenicity in Salmonella typhimurium TA98 assessed as number of revertant colonies per plate at 10 microg/ml by Ames test; format: toxicity; settings: salmonella enterica subsp. enterica serovar typhimurium; dose 10 µg/ml

IC50 (Leishmania amazonensis [2]) [µM] | IC50 (Leishmania amazonensis [3]) [µM] | SMILES | CC50 at 48 h [1] [µM] | selectivity ratio [18] | selectivity ratio [19] | other results
10.4 | 2 | C[C@@H]1[C@H](O)[C@@H](C)/C=C/C=C/C=C/C=C/C=C/C=C/C=C/[C@H](O[C@@H]2O[C@H](C)[C@@H](O)[C@H](N)[C@@H]2O)C[C@@H]2O[C@](O)(C[C@@H](O)C[C@@H](O)[C@H](O)CC[C@@H](O)C[C@@H](O)CC(=O)O[C@H]1C)C[C@H](O)[C@H]2C(=O)O [AMPHOTERICIN B] | 12.8 | – | – | Activity (Leishmania amazonensis [4]): 0.6%; Activity (Leishmania amazonensis [5]): 0.3%; Activity (Leishmania amazonensis [6]): 98.7%; Activity (Leishmania amazonensis [7]): 0.3%; Activity (Leishmania amazonensis [8]): 1.6%; Activity (Leishmania amazonensis [9]): 0.6%; Activity (Leishmania amazonensis [10]): 97.1%; Activity (Leishmania amazonensis [11]): 0.6%; Activity (Leishmania amazonensis [12]): 0.8%; Activity (Leishmania amazonensis [13]): 1.5%; Activity (Leishmania amazonensis [14]): 95.1%; Activity (Leishmania amazonensis [15]): 2.5%
– | – | Nc1ccc2cc3ccccc3cc2c1 [2-AMINOANTHRACENE] | – | – | – | Activity [16]: 231 revertants/plate; revertant count [17]: 963 revertants/plate
71.5 | 19.3 | COc1cc(OC)cc(-c2cc(-c3cc(OC)c(OC)c(OC)c3Cl)no2)c1 | 28 | 0.4 | 1.5 | –
9 | 10.9 | COc1ccc(-c2cc(-c3cc(OC)c(OC)c(OC)c3Cl)no2)cc1 | 9.6 | 1 | 0.8 | –
88 | 31.7 | COc1ccc(-c2cc(-c3cc(OC)c(OC)c(OC)c3Cl)no2)cc1OC | 26.7 | 0.3 | 0.8 | –
– | – | COc1cccc2c1C(=O)c1c(O)c3c(c(O)c1C2=O)C[C@@](O)(C(=O)CO)C[C@@H]3O[C@H]1C[C@H](N)[C@H](O)[C@H](C)O1 [DOXORUBICIN] | 2.4 | – | – | –
– | 1.6 | COc1ccc(-c2cc(-c3cc(OC)c(OC)c(OC)c3)on2)cc1OC | – | – | 21 | IC50 (Leishmania amazonensis [20]): 20.2 µM; Activity (Leishmania amazonensis [21]): 98.5%
– | – | COc1ccc(-c2cn(-c3cc(OC)c(OC)c(OC)c3)nn2)cc1OC | – | – | – | IC50 (Leishmania amazonensis [22]): 194 µM
– | – | COc1cc(-c2cc(-c3cc(OC)c(OC)c(OC)c3)on2)cc(OC)c1OC | – | – | – | IC50 (Leishmania amazonensis [23]): 17.6 µM
1.3 | 16.3 | N=C(N)c1ccc(OCCCCCOc2ccc(C(=N)N)cc2)cc1 [PENTAMIDINE] | 23.2 | 17.8 | 1.4 | –
33.8 | 12.7 | COc1cc(-c2cc(-c3cc(OC)c(OC)c(OC)c3Cl)on2)cc(OC)c1OC | 2.7 | 0.07 | 0.2 | –
103 | 10.3 | COc1cc(-c2cc(-c3ccc4c(c3)OCO4)no2)c(Cl)c(OC)c1OC | 33.7 | 0.3 | 3.3 | Ratio IC50 (Leishmania amazonensis [24]): <=7
31.2 | 7.3 | COc1cc(OC)cc(-c2cc(-c3cc(OC)c(OC)c(OC)c3Cl)on2)c1 | 82.6 | 2.6 | 11.3 | –
– | – | COc1ccc(-n2cc(-c3cc(OC)c(OC)c(OC)c3)nn2)cc1OC | – | – | – | IC50 (Leishmania amazonensis [22]): 122 µM; IC50 (Leishmania amazonensis [25]): 122 µM
74.4 | 21.8 | COc1cc(-c2cc(-c3cc(OC)c(OC)c(OC)c3Cl)no2)cc(OC)c1OC | 7 | 0.1 | 0.3 | –
45.8 | 12.5 | COc1ccc(-c2cc(-c3cc(OC)c(OC)c(OC)c3Cl)on2)cc1 | 60.7 | 1.3 | 4.9 | –
– | – | COc1ccc(-c2cc(-c3cc(OC)c(OC)c(OC)c3)no2)cc1OC | – | – | – | IC50 (Leishmania amazonensis [22]): 19.4 µM
91.8 | 11.4 | COc1ccc(-c2cc(-c3cc(OC)c(OC)c(OC)c3Cl)on2)cc1OC | 47.2 | 0.5 | 4.1 | –
12 | 23.4 | COc1cc(-n2cc(-c3ccc4c(c3)OCO4)nn2)cc(OC)c1OC | 23.5 | 1.9 | 1 | IC50 (Leishmania amazonensis [26]): 7.2 µM
– | – | COc1cc(-c2cc(-c3ccc4c(c3)OCO4)no2)cc(OC)c1OC | – | – | – | IC50 (Leishmania amazonensis [27]): 3.3 µM
– | – | COc1cc(-c2cn(-c3cc(OC)c(OC)c(OC)c3)nn2)cc(OC)c1OC | – | – | – | IC50 (Leishmania amazonensis [23]): > 200 µM
– | – | Nc1ccc([N+](=O)[O-])cc1N | – | – | – | Activity [28]: 253 µg
